Reference: US9046782B2, “Resist composition for negative tone development and pattern forming method using the same” (FUJIFILM Corporation, priority 2007, dated 2015)

Assay: Vapor pressure of solvents for negative tone development and rinsing
Conditions: value at 20° C.

Row | SMILES | Vapor Pressure [kPa]
1 | CCCCCCCO [1-Heptanol] | 0.015
2 | CCCCCCO [1-Hexanol] | 0.13
3 | CCCCCC(C)O (stereo not drawn) [2-Heptanol] | 0.133
4 | CCCCC(C)=O [2-Hexanone] | 0.36
5 | CC(C)CCO [3-Methyl-1-butanol] | 0.4
6 | CCCCOC(C)=O [Butyl acetate] | 1.2
7 | CCCCCCCCCC [Decane] | 0.17
8 | CCCOCCC [Dipropyl ether] | 8.33
9 | CCCCCCCCCCCC [Dodecane] | 0.04
10 | CC(=O)OCCC(C)C [Isoamyl acetate] | 0.53
11 | CCC(C)=O [Methyl ethyl ketone] | 10.5
12 | CC(=O)CC(C)C [Methyl isobutyl ketone] | 2.1
